# pIC50: −log10 of the molar value.
# Tested on: PC3 cells
# Test: NAMPT Cell Proliferation Assay
# Assay type: cell-based
# Details: Homo sapiens, PC-3, 120 h, 5 days incubation, cell viability by Cell Titer Glo
# Protocol: NAMPT Cell Proliferation Assay
# PC3 cells were seeded in 96-well black plates (Corning #3904) at 500 cells/well in 90 μl of RPMI media containing 10% heat-inactivated FBS and incubated overnight at 37° C. and 5% CO2 to allow cells to attach to wells. The following day, test compounds were serially diluted in neat DMSO to 1000× final concentrations prior to dilution with RPMI media to 10× and 1% DMSO. Ten μL of the 10× compounds were then transferred to wells containing cells to produce a dose response of 10-fold dilutions from 10 μM to 1×10^−5 μM. Cells were incubated for 5 days at 37° C. and 5% CO2, then cell viability was measured using Cell Titer Glo reagent (Promega #G7571). Percent inhibition values were calculated and fitted to a sigmoidal dose response curves using Assay Explorer software to determine IC50s.
row,pIC50,SMILES
1,7.21,"O=C(NCc1ccn2ccnc2c1)c1ccc(C2CCN(C(=O)c3cc4ccccn4n3)CC2)cc1 [Example 1111, N-(imidazo[1,2-a]pyridin-7-ylmethyl)-4-[1-(pyrazolo[1,5-a]pyridin-2-ylcarbonyl)piperidin-4-yl]benzamide]"
2,7.06,"O=C(Cc1ccc(F)cc1F)Nc1ccc(C(=O)NCc2ccn3ccnc3c2)cc1 [Example 891, 4-{[(2,4-difluorophenyl)acetyl]amino}-N-(imidazo[1,2-a]pyridin-7-ylmethyl)benzamide]"
3,8.53,"CC(C)C1CC(C(=O)N2CCC(c3ccc(C(=O)NCc4ccn5ccnc5c4)cc3)CC2)CCO1 (stereo not drawn) [Example 1008, N-(imidazo[1,2-a]pyridin-7-ylmethyl)-4-(1-{[2-(propan-2-yl)tetrahydro-2H-pyran-4-yl]carbonyl}piperidin-4-yl)benzamide]"
4,7.14,"COc1cccc(CC(=O)N2CCC(c3ccc(C(=O)NCc4ccn5ccnc5c4)cc3)CC2)c1 [Example 933, N-(imidazo[1,2-a]pyridin-7-ylmethyl)-4-{1-[(3-methoxyphenyl)acetyl]piperidin-4-yl}benzamide]"
5,9.57,"Cc1cc(C(=O)N2CCC(c3ccc(NC(=O)NCc4ccn5ccnc5c4)cc3)CC2)n(C(C)(C)C)n1 [Example 1029, 1-(4-{1-[(1-tert-butyl-3-methyl-1H-pyrazol-5-yl)carbonyl]piperidin-4-yl}phenyl)-3-(imidazo[1,2-a]pyridin-7-ylmethyl)urea]"
6,6.43,"CC(C)(C)OC(=O)N1CCC(c2ccc(NC(=O)Cc3ccn4ccnc4c3)c(F)c2)CC1 [Example 1067, tert-butyl 4-{3-fluoro-4-[(imidazo[1,2-a]pyridin-7-ylacetyl)amino]phenyl}piperidine-1-carboxylate]"
7,7.87,"O=C(NCc1ccn2ccnc2c1)Nc1ccc(C2CCN(C(=O)/C=C/c3ccccn3)CC2)cc1 [Example 1040, 1-(imidazo[1,2-a]pyridin-7-ylmethyl)-3-(4-{1-[(2E)-3-(pyridin-2-yl)prop-2-enoyl]piperidin-4-yl}phenyl)urea]"
8,< 5.00,"COC[C@H]1CCCN1C(=O)c1ccc(C(=O)NCc2ccn3ccnc3c2)cc1 [Example 878, N-(imidazo[1,2-a]pyridin-7-ylmethyl)-4-{[(2R)-2-(methoxymethyl)pyrrolidin-1-yl]carbonyl}benzamide]"
9,7.66,"O=C(NCc1ccn2ccnc2c1)c1ccc(C2CCN(C(=O)c3cc(C4CC4)on3)CC2)cc1 [Example 973, 4-{1-[(5-cyclopropyl-1,2-oxazol-3-yl)carbonyl]piperidin-4-yl}-N-(imidazo[1,2-a]pyridin-7-ylmethyl)benzamide]"
10,8.69,"COCc1ccccc1C(=O)N1CCC(c2ccc(C(=O)NCc3ccn4ccnc4c3)cc2)CC1 [Example 925, N-(imidazo[1,2-a]pyridin-7-ylmethyl)-4-{1-[2-(methoxymethyl)benzoyl]piperidin-4-yl}benzamide]"
11,8.38,"Cn1cc2ccc(C(=O)N3CCC(c4ccc(C(=O)NCc5ccn6ccnc6c5)cc4)CC3)cc2n1 [Example 1118, N-(imidazo[1,2-a]pyridin-7-ylmethyl)-4-{1-[(2-methyl-2H-indazol-6-yl)carbonyl]piperidin-4-yl}benzamide]"
12,8.17,"C[C@H]1CCCC[C@H]1OCC(=O)N1CCC(c2ccc(C(=O)NCc3ccn4ccnc4c3)cc2)CC1 [Example 931, N-(imidazo[1,2-a]pyridin-7-ylmethyl)-4-[1-({[(1R,2S)-2-methylcyclohexyl]oxy}acetyl)piperidin-4-yl]benzamide]"
13,8.89,"C=CCn1nc(C)cc1C(=O)N1CCC(c2ccc(NC(=O)NCc3ccn4ccnc4c3)cc2)CC1 [Example 1056, 1-(imidazo[1,2-a]pyridin-7-ylmethyl)-3-[4-(1-{[3-methyl-1-(prop-2-en-1-yl)-1H-pyrazol-5-yl]carbonyl}piperidin-4-yl)phenyl]urea]"
14,7.83,"O=C(NCc1ccn2ccnc2c1)c1ccc(C2CCN(C(=O)c3cnc(C4CC4)s3)CC2)cc1 [Example 1084, 4-{1-[(2-cyclopropyl-1,3-thiazol-5-yl)carbonyl]piperidin-4-yl}-N-(imidazo[1,2-a]pyridin-7-ylmethyl)benzamide]"
15,8.81,"O=C(NCc1ccn2ccnc2c1)c1ccc(-c2cc(C3CC3)nn2Cc2ccccc2)s1 [Example 857, 5-(1-benzyl-3-cyclopropyl-1H-pyrazol-5-yl)-N-(imidazo[1,2-a]pyridin-7-ylmethyl)thiophene-2-carboxamide]"
16,8.05,"O=C(NCc1ccn2ccnc2c1)Nc1ccc(C2CCN(C(=O)c3ccc(C4CC4)cn3)CC2)cc1 [Example 1132, 1-(4-{1-[(5-cyclopropylpyridin-2-yl)carbonyl]piperidin-4-yl}phenyl)-3-(imidazo[1,2-a]pyridin-7-ylmethyl)urea]"
17,7.61,"O=C(NCc1ccn2ccnc2c1)Nc1ccc(C2CCN(C(=O)COc3ccc(F)cc3)CC2)cc1 [Example 943, 1-(4-{1-[(4-fluorophenoxy)acetyl]piperidin-4-yl}phenyl)-3-(imidazo[1,2-a]pyridin-7-ylmethyl)urea]"

row,pIC50,SMILES
1,8.08,"O=C(NCc1ccn2ccnc2c1)c1ccc(C2CCN(C(=O)c3ncccc3Cl)CC2)cc1 [Example 965, 4-{1-[(3-chloropyridin-2-yl)carbonyl]piperidin-4-yl}-N-(imidazo[1,2-a]pyridin-7-ylmethyl)benzamide]"
2,8.20,"O=C(NCc1ccn2ccnc2c1)Nc1ccc(C2CCN(C(=O)c3cccnc3Cl)CC2)cc1 [Example 938, 1-(4-{1-[(2-chloropyridin-3-yl)carbonyl]piperidin-4-yl}phenyl)-3-(imidazo[1,2-a]pyridin-7-ylmethyl)urea]"
3,7.19,"CCC1CCCCN1C(=O)C(=O)N1CCC(c2ccc(NC(=O)NCc3ccn4ccnc4c3)cc2)CC1 (stereo not drawn) [Example 1150, 1-(4-{1-[(2-ethylpiperidin-1-yl)(oxo)acetyl]piperidin-4-yl}phenyl)-3-(imidazo[1,2-a]pyridin-7-ylmethyl)urea]"
4,8.71,"N#Cc1ccc(F)c(C(=O)N2CCC(c3ccc(NC(=O)NCc4ccn5ccnc5c4)cc3)CC2)c1 [Example 1033, 1-{4-[1-(5-cyano-2-fluorobenzoyl)piperidin-4-yl]phenyl}-3-(imidazo[1,2-a]pyridin-7-ylmethyl)urea]"
5,6.63,"O=C(NCc1ccn2ccnc2c1)c1ccc(C2CCN(C(=O)COc3ccc(F)cc3)CC2)cc1 [Example 918, 4-{1-[(4-fluorophenoxy)acetyl]piperidin-4-yl}-N-(imidazo[1,2-a]pyridin-7-ylmethyl)benzamide]"
6,8.11,"O=C(NCc1ccn2ccnc2c1)Nc1ccc(C2CCN(C(=O)c3ccc4ccncc4c3)CC2)cc1 [Example 1037, 1-(imidazo[1,2-a]pyridin-7-ylmethyl)-3-{4-[1-(isoquinolin-7-ylcarbonyl)piperidin-4-yl]phenyl}urea]"
7,7.21,"O=C(Cc1ccc2nncn2c1)Nc1ccc(C2CCN(C(=O)c3ccccc3F)CC2)cc1 [Example 1162, N-{4-[1-(2-fluorobenzoyl)piperidin-4-yl]phenyl}-2-([1,2,4]triazolo[4,3-a]pyridin-6-yl)acetamide]"
8,8.34,"CC1Cc2cc(C(=O)N3CCC(c4ccc(NC(=O)NCc5ccn6ccnc6c5)cc4)CC3)ccc2O1 (stereo not drawn) [Example 1046, 1-(imidazo[1,2-a]pyridin-7-ylmethyl)-3-(4-{1-[(2-methyl-2,3-dihydro-1-benzofuran-5-yl)carbonyl]piperidin-4-yl}phenyl)urea]"
9,7.16,"COc1ccccc1CC(=O)Nc1ccc(C(=O)NCc2ccn3ccnc3c2)cc1 [Example 867, N-(imidazo[1,2-a]pyridin-7-ylmethyl)-4-{[(2-methoxyphenyl)acetyl]amino}benzamide]"
10,9.00,"O=C(Cc1ccn2ccnc2c1)Nc1ccc(C2CCN(C(=O)c3ccccc3F)CC2)cc1 [Example 905, N-{4-[1-(2-fluorobenzoyl)piperidin-4-yl]phenyl}-2-(imidazo[1,2-a]pyridin-7-yl)acetamide]"
11,8.54,"CC(C(=O)N1CCC(c2ccc(NC(=O)NCc3ccn4ccnc4c3)cc2)CC1)n1ccc(C2CC2)n1 (stereo not drawn) [Example 1142, 1-(4-{1-[2-(3-cyclopropyl-1H-pyrazol-1-yl)propanoyl]piperidin-4-yl}phenyl)-3-(imidazo[1,2-a]pyridin-7-ylmethyl)urea]"
12,7.67,"O=C(NCc1ccn2ccnc2c1)c1ccc(C2CCN(C(=O)c3cnc4c(c3)CCCC4)CC2)cc1 [Example 986, N-(imidazo[1,2-a]pyridin-7-ylmethyl)-4-[1-(5,6,7,8-tetrahydroquinolin-3-ylcarbonyl)piperidin-4-yl]benzamide]"
13,8.17,"Cn1nc(C2CC2)cc1-c1ccc(C(=O)NCc2ccn3ccnc3c2)s1 [Example 892, 5-(3-cyclopropyl-1-methyl-1H-pyrazol-5-yl)-N-(imidazo[1,2-a]pyridin-7-ylmethyl)thiophene-2-carboxamide]"
14,7.61,"CC(C)CS(=O)(=O)CC(=O)N1CCC(c2ccc(C(=O)NCc3ccn4ccnc4c3)cc2)CC1 [Example 929, N-(imidazo[1,2-a]pyridin-7-ylmethyl)-4-(1-{[(2-methylpropyl)sulfonyl]acetyl}piperidin-4-yl)benzamide]"
15,9.09,"COC1CCC(C(=O)N2CCC(c3ccc(NC(=O)NCc4ccn5ccnc5c4)cc3)CC2)CC1 (stereo not drawn) [Example 1025, 1-(imidazo[1,2-a]pyridin-7-ylmethyl)-3-(4-{1-[(4-methoxycyclohexyl)carbonyl]piperidin-4-yl}phenyl)urea]"
16,8.52,"COc1cc(C(=O)N2CCC(c3ccc(NC(=O)NCc4ccn5ccnc5c4)cc3)CC2)ncc1C [Example 1136, 1-(imidazo[1,2-a]pyridin-7-ylmethyl)-3-(4-{1-[(4-methoxy-5-methylpyridin-2-yl)carbonyl]piperidin-4-yl}phenyl)urea]"

# From US9187472B2 (AbbVie Inc., priority 2012, dated 2015)
